Experimental data taken from patent US20080194701A1, “Bifunctional Enzyme with Y-Glutamylcysteine Synthetase and Glutathione Synthetase Activity and Uses Thereof” (priority 2004, published 2008).

Assays:
S. agalactiae γ-GCS-GS = target: T1, S. agalactiae γ-GCS-GS (Streptococcus agalactiae serotype V, UniProt Q8DXM9); test: GS activity assay based on ADP formation, S. agalactiae γ-GCS-GS; conditions: GS activity
T1 sequence (Q8DXM9 1-750): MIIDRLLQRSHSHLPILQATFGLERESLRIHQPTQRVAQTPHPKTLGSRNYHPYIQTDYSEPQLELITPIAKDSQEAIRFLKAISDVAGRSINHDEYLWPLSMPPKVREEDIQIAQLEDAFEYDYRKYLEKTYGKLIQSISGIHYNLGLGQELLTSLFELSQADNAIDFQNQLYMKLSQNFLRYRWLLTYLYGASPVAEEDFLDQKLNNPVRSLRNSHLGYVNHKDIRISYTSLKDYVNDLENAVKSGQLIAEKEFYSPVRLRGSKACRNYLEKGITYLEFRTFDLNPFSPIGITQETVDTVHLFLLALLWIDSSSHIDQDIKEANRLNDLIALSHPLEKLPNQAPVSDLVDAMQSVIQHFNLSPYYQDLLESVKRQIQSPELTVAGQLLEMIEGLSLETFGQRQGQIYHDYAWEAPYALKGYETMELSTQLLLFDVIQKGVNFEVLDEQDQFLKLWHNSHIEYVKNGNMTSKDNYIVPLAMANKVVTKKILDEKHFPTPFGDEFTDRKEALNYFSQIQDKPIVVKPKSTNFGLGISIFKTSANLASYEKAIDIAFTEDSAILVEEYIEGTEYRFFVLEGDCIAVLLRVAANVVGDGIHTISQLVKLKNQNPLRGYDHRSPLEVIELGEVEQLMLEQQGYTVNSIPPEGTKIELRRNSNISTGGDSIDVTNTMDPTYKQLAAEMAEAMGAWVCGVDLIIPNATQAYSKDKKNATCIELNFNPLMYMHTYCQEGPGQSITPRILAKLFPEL
Experimental: Transformed cells were grown, induced, and harvested by centrifugation, and were then broken using a French pressure cell. […] The column was equilibrated with 50 mM Tris HCl buffer, pH 7.4, containing 5 mM L-glutamate, 5 mM MgCl2, and 5 mM β-mercaptoethanol, and the high-speed supernatant was loaded. After washing the column with equilibration buffer to remove proteins lacking a His-tag, the expressed His8-tagged protein was eluted using the same buffer supplemented with 200 mM imidazole. Amount of γ-GCS activity was determined as described in Example 2. […] It was observed that the purified enzyme catalyzed both the γ-GCS and the GS reactions. Since the GS-specific activity was higher than the specific activity for any known GS enzyme, it was apparent that the expressed 85 kDa S. agalactiae protein (rather than a trace impurity), accounted for the observed GS activity. Using the pREP4 auxiliary plasmid instead of the pRARE plasmid gave somewhat lower yields (325 mg total protein vs. 442 mg protein using pRARE) but the specific activities of the γ-GCS activity (870 units/mg) and GS activities (1143 units/mg) were similar.
Results for E. coli GS are from H. Gushima et al. J. Appl. Biochem. 5, 210-218 (1983). Results for rat GS are from J. L. Luo et al. Biochem. Biophys. Res. Commun. 275, 577-581 (2000). Results for human GS are from R. Njalsson et al. Biochem. Biophys. Res. Commun. 289, 80-84 (2001) and R. Njalsson et al. Biochem. J. 349, 275-279 (2000).

E. coli γ-GCS = E. coli γ-GCS (Escherichia coli, UniProt P0A6W9); conditions: cited from earlier work
E. faecalis γ-GCS-GS [1] = target: T2, E. faecalis γ-GCS-GS (Enterococcus faecalis, UniProt Q82ZG8); test: GS activity of E. faecalis γ-GCS-GS; conditions: substrate Km, GS activity
Human GS = target: T3, Human GS (Homo sapiens, UniProt P48637); conditions: cited from earlier work
T3 sequence (P48637 1-474): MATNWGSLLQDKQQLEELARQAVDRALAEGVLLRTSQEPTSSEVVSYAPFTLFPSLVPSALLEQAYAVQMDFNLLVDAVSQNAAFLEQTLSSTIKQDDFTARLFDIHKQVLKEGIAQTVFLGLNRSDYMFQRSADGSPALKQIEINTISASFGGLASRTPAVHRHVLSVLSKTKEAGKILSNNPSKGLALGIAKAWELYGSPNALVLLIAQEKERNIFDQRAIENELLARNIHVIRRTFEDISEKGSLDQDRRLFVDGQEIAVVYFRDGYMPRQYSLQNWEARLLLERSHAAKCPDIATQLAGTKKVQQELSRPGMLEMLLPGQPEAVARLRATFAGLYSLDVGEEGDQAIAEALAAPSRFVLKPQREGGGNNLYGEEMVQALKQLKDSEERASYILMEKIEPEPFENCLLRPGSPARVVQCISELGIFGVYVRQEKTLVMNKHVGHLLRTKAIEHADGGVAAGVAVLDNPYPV

E. faecalis γ-GCS-GS [2] = target: T2, E. faecalis γ-GCS-GS; test: γ-GCS activity of E. faecalis γ-GCS-GS; conditions: substrate Km, γ-GCS activity

Chain of E. coli γ-GCS (P0A6W9 whole entry): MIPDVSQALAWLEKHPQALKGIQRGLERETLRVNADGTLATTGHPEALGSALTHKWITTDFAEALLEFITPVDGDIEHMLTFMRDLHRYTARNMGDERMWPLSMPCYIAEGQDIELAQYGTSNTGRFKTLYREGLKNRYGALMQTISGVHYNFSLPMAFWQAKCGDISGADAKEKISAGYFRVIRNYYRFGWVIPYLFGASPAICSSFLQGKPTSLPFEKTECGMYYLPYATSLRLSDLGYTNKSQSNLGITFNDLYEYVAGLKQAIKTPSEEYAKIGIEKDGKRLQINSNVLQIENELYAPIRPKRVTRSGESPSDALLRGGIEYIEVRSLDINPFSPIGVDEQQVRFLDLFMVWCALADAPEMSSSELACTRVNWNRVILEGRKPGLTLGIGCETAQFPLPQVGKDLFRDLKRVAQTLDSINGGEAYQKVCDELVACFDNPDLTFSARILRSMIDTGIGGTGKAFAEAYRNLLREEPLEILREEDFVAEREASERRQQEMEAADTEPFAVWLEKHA
T2 sequence (Q82ZG8 whole entry): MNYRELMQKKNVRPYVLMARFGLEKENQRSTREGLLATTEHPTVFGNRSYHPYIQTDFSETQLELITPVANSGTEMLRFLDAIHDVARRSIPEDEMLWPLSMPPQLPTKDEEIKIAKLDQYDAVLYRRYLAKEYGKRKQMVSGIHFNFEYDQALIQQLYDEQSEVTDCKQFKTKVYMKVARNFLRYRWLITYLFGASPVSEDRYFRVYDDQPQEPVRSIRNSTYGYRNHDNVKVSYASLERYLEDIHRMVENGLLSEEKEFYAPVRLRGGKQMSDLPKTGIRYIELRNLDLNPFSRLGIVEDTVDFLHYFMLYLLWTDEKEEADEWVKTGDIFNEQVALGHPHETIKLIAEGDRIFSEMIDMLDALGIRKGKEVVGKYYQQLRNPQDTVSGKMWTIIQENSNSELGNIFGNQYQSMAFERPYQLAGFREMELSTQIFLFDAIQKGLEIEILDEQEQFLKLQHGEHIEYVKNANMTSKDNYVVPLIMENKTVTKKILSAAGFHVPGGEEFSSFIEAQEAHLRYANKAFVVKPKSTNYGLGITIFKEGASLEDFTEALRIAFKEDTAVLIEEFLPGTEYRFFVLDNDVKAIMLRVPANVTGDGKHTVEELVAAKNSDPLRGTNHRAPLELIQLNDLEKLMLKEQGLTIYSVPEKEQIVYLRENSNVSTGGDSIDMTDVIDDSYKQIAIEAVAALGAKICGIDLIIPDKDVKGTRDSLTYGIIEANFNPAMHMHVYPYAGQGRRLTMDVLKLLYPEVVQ

SMILES: Nc1ncnc2c1ncn2[C@@H]1O[C@H](COP(=O)(O)OP(=O)(O)OP(=O)(O)O)[C@@H](O)[C@H]1O [ATP]
- Vmax (S. agalactiae γ-GCS-GS; unit = 1 μmol product per hour): 1662 ± 77 units/mg
- Km (S. agalactiae γ-GCS-GS; substrate Km): 420 ± 49 µM
- Km (E. coli γ-GCS; substrate Km): 62 µM
- Vmax (E. coli γ-GCS; unit = 1 μmol product per hour): ~3000 units/mg
- Km (E. faecalis γ-GCS-GS [1]): 179 ± 5 µM
- Vmax (Human GS): 361 ± 84 units/mg
- Km (Human GS; substrate Km): 220 ± 30 µM
- Km (E. faecalis γ-GCS-GS [2]): 2300 ± 100 µM
